Activity calls are given as the source filed them.
How the values were obtained:
[1] = molecular target: Matrix metalloproteinase-14 (Homo sapiens, UniProt P50281); assay: Dose Response confirmation of uHTS hits for a small molecule inhibitors of MT1-MMP activation in a fluorescence assay set 2.; format: functional
[2] = molecular target: Disintegrin and metalloproteinase domain-containing protein 17 (Homo sapiens, UniProt P78536); assay: inhibition of ADAM17 substrate cleavage – biochemical, quenched FRET substrate, counter-screen for ADAM10 exosite inhibitor project, dose response (AID 743253)
Nonstructural protein 1 = Nonstructural protein 1 (Influenza A virus, UniProt Q194T2); format: functional, Influenza A virus (A/California/07/2009(H1N1))
[3] = potency of ADAM10 substrate cleavage blockers – biochemical, QFRET, dose response (AID 743254);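 further: ADAM10 enzyme with the DM2 quenched FRET peptide as substrate; EDANS fluorescence gain as the protease cuts the substrate; inhibitor potency against ADAM10 proteolytic activity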
[4] = NIH-3T3 fibroblast cytotoxicity, dose response, cytotoxicity control, cell-based, fluorescence, Alamar Blue, secondary assay (AID 2327); format: functional;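 further: NIH-3T3 mouse fibroblasts cultured with fluconazole at 8 µg/mL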
[5] = fluconazole-exposed Candida albicans growth modulators – fluorescence, retest, confirmation (AID 2467); format: functional, cell-based
[6] = molecular target: Botulinum neurotoxin type F (Clostridium botulinum, UniProt P30996); assay: High-throughput multiplex microsphere dose response for inhibitors of toxin protease, specifically Botulinum neurotoxin light chain F protease, compounds from Cherry Pick 02.; format: functional; details: read-out: EC50_MICROM
[7] = molecular target: T1, DNA repair and recombination protein RAD54-like (Homo sapiens, UniProt Q92698); assay: RAD54 Holliday junction migration blockers – biochemical, fluorescence, cherry-picked samples, dose series, confirmation (AID 651657); format: functional
T1 sequence (Q92698 whole entry): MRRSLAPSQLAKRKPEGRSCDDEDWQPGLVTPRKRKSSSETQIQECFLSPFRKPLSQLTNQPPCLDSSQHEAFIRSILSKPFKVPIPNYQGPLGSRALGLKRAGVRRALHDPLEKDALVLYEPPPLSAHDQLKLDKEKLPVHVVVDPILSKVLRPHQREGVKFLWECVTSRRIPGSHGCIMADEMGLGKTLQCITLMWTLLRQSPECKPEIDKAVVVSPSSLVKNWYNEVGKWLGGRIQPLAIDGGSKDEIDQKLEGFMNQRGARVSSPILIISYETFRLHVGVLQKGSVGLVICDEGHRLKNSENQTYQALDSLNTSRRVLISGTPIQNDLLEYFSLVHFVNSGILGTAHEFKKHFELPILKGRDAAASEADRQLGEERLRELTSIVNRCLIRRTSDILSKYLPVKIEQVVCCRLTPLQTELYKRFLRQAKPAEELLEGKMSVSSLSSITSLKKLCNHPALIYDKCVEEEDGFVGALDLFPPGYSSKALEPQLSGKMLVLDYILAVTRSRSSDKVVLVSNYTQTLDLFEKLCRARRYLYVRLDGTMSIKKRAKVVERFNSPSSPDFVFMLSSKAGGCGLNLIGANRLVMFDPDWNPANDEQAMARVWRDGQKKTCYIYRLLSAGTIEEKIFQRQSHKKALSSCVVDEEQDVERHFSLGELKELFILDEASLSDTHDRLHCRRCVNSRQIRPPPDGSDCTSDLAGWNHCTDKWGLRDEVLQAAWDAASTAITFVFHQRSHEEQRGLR

[8] = cytotoxicity toward MDA-MB-231 breast cancer cells – cell-based, CellTiter-Glo luminescence, cherry-pick, cytotoxicity control for RAD54 inhibitor project, dose response (AID 651692); format: functional
[9] = molecular target: T2, DNA repair protein RAD52 homolog (Homo sapiens, UniProt P43351); format: functional, biochemical
T2 sequence (P43351 whole entry): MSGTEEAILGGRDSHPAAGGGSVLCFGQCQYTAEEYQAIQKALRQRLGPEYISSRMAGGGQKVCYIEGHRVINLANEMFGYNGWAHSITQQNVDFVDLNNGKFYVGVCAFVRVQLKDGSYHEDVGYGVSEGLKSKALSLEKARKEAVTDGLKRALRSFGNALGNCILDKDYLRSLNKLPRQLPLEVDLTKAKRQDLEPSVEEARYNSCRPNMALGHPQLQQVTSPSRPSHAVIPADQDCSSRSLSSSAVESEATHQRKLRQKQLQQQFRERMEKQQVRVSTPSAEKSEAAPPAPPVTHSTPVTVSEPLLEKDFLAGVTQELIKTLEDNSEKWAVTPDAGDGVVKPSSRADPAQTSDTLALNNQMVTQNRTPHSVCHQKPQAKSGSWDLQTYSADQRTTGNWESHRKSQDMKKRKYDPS

[10] = molecular target: T3, Probable nicotinate-nucleotide adenylyltransferase (Staphylococcus aureus (strain N315), UniProt P65502); format: functional, Staphylococcus aureus subsp. aureus N315; details: read-out: IC50_Mean;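 on IC50 Mean: confirmatory dose-response retesting of NadD inhibitor hits first found in an ultra-high-throughput screen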
[11] = molecular target: T3, Probable nicotinate-nucleotide adenylyltransferase; format: functional, Staphylococcus aureus subsp. aureus N315
Vero [12] = assay: viability loss in Vero cells – cell-based, plate reader, cherry-pick samples, cytotoxicity control, dose response (AID 687020); format: functional; details: Chlorocebus sabaeus
A549 = assay: viability loss in A549 cells – cell-based, plate reader, cherry-pick samples, cytotoxicity control, dose response (AID 687028); format: functional; details: Homo sapiens
Beta-galactosidase = Beta-galactosidase (Escherichia coli, UniProt Q8VNN2); assay: Dose response counterscreen for EBI2 assay utilizing the enzyme, b-galactosidase.; format: functional
[13] = molecular target: SWI/SNF-related matrix-associated actin-dependent regulator of chromatin subfamily A member 2 (Homo sapiens, UniProt P51531); assay: Luminescence-based cell-based high throughput dose response assay to identify activators of the function of SWI/SNF related, matrix associated, actin dependent regulator of chromatin, subfamily a, member 2 (SMARCA2, BRM).; format: functional
[14] = Counterscreen for activators of the function of SWI/SNF related, matrix associated, actin dependent regulator of chromatin, subfamily a, member 2 (SMARCA2, BRM): Luminescence-based cell-based high throughput dose response assay to identify non-selective compounds using the VP16 reporter assay.; format: functional
[15] = molecular target: T4, Long-chain-fatty-acid--AMP ligase FadD28 (Mycobacterium tuberculosis, UniProt P9WQ59); assay: Fluorescence polarization aasay to screen for inhibitors that compete for the binding of FadD28 to a bisubstrate Measured in Biochemical System Using Plate Reader - 2147-01_Inhibitor_Dose_CherryPick_Activity.; format: functional, Mycobacterium tuberculosis H37Rv
T4 sequence (P9WQ59 whole entry): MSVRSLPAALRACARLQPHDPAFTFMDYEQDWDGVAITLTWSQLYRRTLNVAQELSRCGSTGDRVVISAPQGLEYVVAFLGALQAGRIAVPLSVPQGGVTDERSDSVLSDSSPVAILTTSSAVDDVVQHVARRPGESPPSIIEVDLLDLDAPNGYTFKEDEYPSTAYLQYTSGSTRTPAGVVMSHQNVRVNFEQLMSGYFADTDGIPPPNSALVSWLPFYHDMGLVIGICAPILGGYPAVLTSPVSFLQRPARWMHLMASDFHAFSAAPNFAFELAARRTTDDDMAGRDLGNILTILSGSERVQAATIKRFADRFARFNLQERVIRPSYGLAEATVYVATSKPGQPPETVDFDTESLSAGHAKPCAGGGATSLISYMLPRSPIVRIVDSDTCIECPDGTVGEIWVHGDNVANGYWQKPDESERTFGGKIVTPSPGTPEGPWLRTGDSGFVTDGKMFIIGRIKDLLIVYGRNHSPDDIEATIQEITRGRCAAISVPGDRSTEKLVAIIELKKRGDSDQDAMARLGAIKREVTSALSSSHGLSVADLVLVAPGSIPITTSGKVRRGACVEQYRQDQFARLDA

[16] = molecular target: Nuclear receptor subfamily 0 group B member 1 (Homo sapiens, UniProt P51843); format: functional, cell-based;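 further: HEK293T cells transfected with SF-1 and DAX-1 plus StAR promoter luciferase reporter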
cells = format: functional, cell-based
[17] = molecular target: Eukaryotic translation initiation factor 4H (Homo sapiens, UniProt Q15056); assay: eIF4H binding inhibition – biochemical, uHTS, fluorescence polarization, translation initiation inhibitor project, primary screen (AID 2012)
[18] = molecular target: Polyadenylate-binding protein 1 (Homo sapiens, UniProt P11940); assay: blockers of PABP interaction with poly(A) – biochemical, fluorescence polarization, […] (AID 2014)
[19] = molecular target: Tyrosine-protein phosphatase non-receptor type 11 (Homo sapiens, UniProt Q06124); assay: PTPN11 enzyme inhibitors – biochemical, selectivity assay for STEP inhibitor project, dose response (AID 602367); format: functional; details: read-out: IC50_Mean
[20] = molecular target: T5, Tyrosine-protein phosphatase non-receptor type 22 (Homo sapiens, UniProt Q9Y2R2); assay: lymphoid phosphatase LYP inhibitors – biochemical, selectivity assay for STEP inhibitor project, dose response (AID 624241); format: functional
T5 sequence (Q9Y2R2 whole entry): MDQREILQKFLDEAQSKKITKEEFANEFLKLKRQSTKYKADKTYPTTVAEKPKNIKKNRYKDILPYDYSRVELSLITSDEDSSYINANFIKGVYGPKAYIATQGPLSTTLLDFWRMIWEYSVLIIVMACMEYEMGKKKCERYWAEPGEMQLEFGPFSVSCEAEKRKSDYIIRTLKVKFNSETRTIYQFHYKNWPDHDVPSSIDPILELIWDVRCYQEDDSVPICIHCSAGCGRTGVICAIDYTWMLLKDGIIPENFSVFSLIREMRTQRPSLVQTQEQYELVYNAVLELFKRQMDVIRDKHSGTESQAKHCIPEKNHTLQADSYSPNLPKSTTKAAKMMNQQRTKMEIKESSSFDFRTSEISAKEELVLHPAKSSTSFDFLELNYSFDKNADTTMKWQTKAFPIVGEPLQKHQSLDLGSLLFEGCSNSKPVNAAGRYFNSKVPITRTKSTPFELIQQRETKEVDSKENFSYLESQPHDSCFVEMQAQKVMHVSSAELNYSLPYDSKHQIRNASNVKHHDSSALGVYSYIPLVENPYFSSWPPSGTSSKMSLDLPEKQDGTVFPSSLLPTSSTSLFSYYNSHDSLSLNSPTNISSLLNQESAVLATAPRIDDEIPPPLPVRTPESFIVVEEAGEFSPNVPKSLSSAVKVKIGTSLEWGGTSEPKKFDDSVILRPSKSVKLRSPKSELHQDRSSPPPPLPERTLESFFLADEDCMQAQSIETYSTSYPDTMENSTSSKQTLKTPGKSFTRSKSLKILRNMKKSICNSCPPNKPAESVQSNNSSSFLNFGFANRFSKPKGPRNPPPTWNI

[21] = molecular target: Dual specificity protein phosphatase 3 (Homo sapiens, UniProt P51452); assay: VHR phosphatase inhibition, dose response, selectivity assay for STEP inhibitor project, biochemical (AID 602374); format: functional; details: read-out: IC50_Mean
[22] = molecular target: T6, Carboxy-terminal domain RNA polymerase II polypeptide A small phosphatase 1 (Homo sapiens, UniProt Q9GZU7); assay: CTDSP1 inhibitors, concentration-response, biochemical, absorbance readout, ultra-high-throughput screen actives (AID 540297); format: functional
T6 sequence (Q9GZU7 whole entry): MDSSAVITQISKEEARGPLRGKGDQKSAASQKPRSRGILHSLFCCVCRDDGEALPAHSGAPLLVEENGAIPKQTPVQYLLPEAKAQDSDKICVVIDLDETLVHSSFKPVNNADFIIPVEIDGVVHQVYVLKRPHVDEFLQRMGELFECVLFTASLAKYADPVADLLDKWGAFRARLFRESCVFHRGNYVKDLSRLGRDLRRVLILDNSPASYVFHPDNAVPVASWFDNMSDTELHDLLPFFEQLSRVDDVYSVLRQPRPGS

[23] = molecular target: Tyrosine-protein phosphatase non-receptor type 5 (Homo sapiens, UniProt P54829); assay: PTPN5 enzyme inhibition – biochemical, fluorescence intensity, uHTS hits, confirmation (AID 602372); format: functional; details: read-out: IC50_Mean
Genome polyprotein = Genome polyprotein (dengue virus type 2, UniProt P29990); assay: flavivirus cap methylation enzyme inhibition – biochemical, confirmation dose response, primary screen (AID 588689); format: functional
Vero [24] = assay: cells; format: functional; details: Chlorocebus sabaeus
[25] = molecular target: Arf-GAP with SH3 domain, ANK repeat and PH domain-containing protein 1 (Homo sapiens, UniProt Q9ULH1); format: functional;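 further: biochemical fluorescence polarization dose–response screen measuring inhibition of ASAP1; ASAP1 GAP domain stimulating GTP hydrolysis by truncated human ARF1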

T3 sequence (P65502 whole entry): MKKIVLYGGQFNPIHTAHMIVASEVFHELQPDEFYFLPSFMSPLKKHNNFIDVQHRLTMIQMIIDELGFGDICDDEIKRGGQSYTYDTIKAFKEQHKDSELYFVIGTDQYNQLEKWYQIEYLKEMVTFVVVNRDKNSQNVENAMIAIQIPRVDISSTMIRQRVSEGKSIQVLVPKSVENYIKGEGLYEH
Sequence of Dual specificity protein phosphatase 3 (P51452 whole entry, the tested form may be a part): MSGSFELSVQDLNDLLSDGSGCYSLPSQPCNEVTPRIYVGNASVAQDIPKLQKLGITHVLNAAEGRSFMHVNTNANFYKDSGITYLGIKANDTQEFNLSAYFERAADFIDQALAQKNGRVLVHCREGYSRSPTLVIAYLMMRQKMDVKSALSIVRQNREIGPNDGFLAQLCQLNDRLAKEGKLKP
Sequence of Disintegrin and metalloproteinase domain-containing protein 17 (P78536 whole entry, the tested form may be a part): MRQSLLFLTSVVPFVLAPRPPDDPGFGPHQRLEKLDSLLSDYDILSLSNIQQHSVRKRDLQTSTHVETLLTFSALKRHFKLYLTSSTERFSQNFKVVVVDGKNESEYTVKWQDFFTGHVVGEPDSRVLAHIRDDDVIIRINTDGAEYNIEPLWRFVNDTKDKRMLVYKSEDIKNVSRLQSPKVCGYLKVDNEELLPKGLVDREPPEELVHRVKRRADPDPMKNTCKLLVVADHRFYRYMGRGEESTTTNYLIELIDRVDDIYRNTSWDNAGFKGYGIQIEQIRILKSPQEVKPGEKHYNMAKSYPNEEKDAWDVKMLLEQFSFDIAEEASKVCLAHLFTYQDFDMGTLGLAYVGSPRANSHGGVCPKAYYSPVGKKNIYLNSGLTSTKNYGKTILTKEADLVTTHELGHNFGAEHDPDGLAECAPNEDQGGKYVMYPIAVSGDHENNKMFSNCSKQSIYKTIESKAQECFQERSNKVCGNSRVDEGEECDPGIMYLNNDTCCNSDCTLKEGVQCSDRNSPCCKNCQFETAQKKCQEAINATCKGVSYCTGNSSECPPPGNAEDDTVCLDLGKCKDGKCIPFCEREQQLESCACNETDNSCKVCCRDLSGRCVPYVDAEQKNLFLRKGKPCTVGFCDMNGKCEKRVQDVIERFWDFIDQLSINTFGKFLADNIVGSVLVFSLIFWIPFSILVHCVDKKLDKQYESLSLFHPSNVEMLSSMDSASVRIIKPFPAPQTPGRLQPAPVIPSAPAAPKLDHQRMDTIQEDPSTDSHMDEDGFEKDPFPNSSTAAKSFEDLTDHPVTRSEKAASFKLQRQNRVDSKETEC
Sequence of Polyadenylate-binding protein 1 (P11940 whole entry): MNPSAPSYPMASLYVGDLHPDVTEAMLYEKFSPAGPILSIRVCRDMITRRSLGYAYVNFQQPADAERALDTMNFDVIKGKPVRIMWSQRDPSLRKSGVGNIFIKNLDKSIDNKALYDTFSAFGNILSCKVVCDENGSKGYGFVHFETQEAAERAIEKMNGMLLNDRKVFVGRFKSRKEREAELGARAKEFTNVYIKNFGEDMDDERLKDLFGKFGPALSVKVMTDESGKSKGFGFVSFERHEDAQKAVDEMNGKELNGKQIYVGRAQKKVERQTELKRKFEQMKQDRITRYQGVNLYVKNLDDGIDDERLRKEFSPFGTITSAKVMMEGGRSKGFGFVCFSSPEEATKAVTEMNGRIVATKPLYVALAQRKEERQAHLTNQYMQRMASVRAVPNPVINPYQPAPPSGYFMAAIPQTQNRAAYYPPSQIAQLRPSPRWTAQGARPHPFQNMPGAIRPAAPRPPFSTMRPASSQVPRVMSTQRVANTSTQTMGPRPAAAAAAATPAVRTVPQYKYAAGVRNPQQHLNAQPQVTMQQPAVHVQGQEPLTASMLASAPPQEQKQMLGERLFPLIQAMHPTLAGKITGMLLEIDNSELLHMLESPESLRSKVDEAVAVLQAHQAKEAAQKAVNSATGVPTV
Sequence of Botulinum neurotoxin type F (P30996 1-436 limits assumed): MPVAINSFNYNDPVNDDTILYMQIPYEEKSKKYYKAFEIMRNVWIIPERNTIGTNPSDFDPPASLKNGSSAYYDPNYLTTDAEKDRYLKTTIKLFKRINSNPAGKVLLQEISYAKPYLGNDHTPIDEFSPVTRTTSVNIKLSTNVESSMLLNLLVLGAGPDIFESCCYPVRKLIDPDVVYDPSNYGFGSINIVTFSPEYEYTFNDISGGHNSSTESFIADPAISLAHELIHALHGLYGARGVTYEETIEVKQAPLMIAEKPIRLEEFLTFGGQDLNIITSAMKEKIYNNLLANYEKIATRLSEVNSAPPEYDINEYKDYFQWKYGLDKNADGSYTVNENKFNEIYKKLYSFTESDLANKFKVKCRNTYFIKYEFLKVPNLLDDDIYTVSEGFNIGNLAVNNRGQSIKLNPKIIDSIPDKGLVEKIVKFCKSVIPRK
Sequence of Nuclear receptor subfamily 0 group B member 1 (P51843 whole entry): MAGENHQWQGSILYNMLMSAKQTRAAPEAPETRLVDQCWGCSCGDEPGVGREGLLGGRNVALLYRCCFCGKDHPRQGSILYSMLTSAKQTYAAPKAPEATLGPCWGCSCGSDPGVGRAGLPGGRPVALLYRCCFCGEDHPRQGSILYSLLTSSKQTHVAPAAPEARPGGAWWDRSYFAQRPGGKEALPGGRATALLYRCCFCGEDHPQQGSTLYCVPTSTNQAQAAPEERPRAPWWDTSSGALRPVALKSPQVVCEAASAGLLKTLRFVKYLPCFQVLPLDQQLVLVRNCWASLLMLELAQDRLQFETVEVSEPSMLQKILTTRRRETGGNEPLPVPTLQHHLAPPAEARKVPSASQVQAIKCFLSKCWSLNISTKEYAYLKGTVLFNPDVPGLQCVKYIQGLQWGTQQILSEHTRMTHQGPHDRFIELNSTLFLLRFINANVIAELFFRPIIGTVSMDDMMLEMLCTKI
Sequence of Tyrosine-protein phosphatase non-receptor type 11 (Q06124 whole entry): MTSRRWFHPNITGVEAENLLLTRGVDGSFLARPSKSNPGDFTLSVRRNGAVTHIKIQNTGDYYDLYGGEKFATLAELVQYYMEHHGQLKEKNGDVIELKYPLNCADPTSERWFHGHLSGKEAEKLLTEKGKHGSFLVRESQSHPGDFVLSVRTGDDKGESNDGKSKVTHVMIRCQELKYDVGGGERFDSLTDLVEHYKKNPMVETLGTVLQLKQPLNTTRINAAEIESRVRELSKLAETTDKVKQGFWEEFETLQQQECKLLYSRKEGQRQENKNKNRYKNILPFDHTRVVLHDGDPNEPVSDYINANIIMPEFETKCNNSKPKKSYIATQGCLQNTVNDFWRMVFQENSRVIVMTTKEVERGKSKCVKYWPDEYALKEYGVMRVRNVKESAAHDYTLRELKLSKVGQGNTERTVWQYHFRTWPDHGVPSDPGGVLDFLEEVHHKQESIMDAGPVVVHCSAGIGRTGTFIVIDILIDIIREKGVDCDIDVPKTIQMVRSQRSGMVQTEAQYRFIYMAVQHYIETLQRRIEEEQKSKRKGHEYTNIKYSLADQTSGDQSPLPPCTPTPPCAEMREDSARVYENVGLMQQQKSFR
Sequence of SWI/SNF-related matrix-associated actin-dependent regulator of chromatin subfamily A member 2 (P51531 whole entry): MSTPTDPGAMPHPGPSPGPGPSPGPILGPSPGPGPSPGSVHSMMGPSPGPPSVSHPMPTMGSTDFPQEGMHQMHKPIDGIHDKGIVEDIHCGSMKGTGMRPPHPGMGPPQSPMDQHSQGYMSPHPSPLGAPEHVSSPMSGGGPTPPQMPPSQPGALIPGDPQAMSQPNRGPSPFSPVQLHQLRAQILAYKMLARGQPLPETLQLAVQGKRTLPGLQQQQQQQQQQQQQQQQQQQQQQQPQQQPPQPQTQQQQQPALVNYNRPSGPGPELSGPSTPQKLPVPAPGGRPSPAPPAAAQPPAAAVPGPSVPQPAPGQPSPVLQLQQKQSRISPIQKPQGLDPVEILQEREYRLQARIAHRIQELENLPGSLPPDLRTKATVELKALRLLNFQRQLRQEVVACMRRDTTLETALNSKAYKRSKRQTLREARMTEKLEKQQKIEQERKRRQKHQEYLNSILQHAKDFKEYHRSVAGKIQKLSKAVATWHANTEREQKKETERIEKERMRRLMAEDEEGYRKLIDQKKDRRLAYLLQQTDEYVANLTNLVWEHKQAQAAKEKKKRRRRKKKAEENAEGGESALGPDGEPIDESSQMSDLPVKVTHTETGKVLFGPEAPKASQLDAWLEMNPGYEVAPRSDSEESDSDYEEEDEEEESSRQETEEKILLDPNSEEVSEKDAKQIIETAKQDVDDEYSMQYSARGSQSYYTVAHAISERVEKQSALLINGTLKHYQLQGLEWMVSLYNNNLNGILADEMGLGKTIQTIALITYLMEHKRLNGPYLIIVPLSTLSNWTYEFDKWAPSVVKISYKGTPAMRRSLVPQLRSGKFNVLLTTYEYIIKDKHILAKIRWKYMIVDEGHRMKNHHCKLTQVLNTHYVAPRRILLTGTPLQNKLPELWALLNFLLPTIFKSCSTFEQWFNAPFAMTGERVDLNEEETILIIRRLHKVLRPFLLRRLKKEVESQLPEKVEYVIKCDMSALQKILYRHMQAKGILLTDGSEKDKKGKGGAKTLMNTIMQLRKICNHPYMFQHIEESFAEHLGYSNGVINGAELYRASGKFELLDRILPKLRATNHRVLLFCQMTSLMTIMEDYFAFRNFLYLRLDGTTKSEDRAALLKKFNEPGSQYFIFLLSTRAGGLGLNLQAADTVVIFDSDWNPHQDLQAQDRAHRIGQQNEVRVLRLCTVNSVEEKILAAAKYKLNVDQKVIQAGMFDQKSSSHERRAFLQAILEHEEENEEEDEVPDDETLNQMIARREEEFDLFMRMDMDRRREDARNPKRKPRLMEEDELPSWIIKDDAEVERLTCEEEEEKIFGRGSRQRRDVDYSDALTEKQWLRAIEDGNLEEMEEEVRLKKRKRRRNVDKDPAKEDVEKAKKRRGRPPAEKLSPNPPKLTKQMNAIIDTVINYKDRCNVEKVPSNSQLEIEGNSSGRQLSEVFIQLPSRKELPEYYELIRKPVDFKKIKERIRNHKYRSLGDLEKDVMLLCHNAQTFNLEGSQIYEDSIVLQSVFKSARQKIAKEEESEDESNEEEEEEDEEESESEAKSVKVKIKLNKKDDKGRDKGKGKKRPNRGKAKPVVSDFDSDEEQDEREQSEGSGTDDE

## Nc1nc(-c2ccccc2)c(N=Nc2ccccc2Cl)s1
[1]
  IC50: 28 µM (inactive)
[2]
  IC50: > 69.5 µM (inactive)
Nonstructural protein 1
  IC50: 9.93 µM (active)
[3]
  IC50: 8.65 µM (active)
[4]
  EC50: > 160 µM (inactive)
[5]
  EC50: 4.78 µM (active)

## Cc1nc2ccc(NC(=O)[C@@H](NC(=O)c3c(F)cccc3F)C(C)C)cc2s1
[6]
  EC50: > 20 µM (inactive)

## COc1ccc(OC)c2sc(N(CCN(C)C)C(=O)c3ccc4ccccc4c3)nc12
[7]
  AC50: 58.4 µM (active)
[8]
  AC50: 32.7 µM (active)
[9]
  AC50: 10.7 µM (active)

## O=C(NNS(=O)(=O)c1ccc2ccccc2c1)c1cc(-c2ccccn2)nc2ccccc12
[10]
  IC50: 28.9 µM (active)
[11]
  IC50: 11.7 µM (active)

## CCNS(=O)(=O)c1ccc(Br)c(C(=O)OC(C)C(=O)NCC2CCCCC2)c1 (stereo not given)
Vero [12]
  AC50: 31.7 µM (active)

## Cc1cccc(N=[N+]([O-])c2cccc(C)n2)n1
A549
  AC50: 34.5 µM (active)

## Cc1ccc2oc(C(=O)N3CCC(O)(c4ccccc4)CC3)c(C)c2c1
Beta-galactosidase
  IC50: > 80 µM (inactive)

## Cc1ccc2c(c1)cc(CN(Cc1ccco1)C(=O)N1CCOCC1)c1nnnn12
[13]
  EC50: > 91.2 µM (inactive)
[14]
  EC50: > 91.2 µM (inactive)

## CCc1cccc2c(C(=O)CN3C(=O)N(C)C4(CCCCC4)C3=O)c[nH]c12
[15]
  AC50: > 100 µM (inactive)
[16]
  IC50: > 67.5 µM (inactive)
cells
  IC50: > 67.5 µM (inactive)

## COc1ccc(/C=N/NC2=NC(=O)C(CC(=O)O)S2)cc1OCc1ccc(Cl)cc1Cl (stereo not given)
[17]
  IC50: 14.7 µM (active)
[18]
  IC50: 64.3 µM (active)
[19]
  IC50: 4.42 µM (active)
[20]
  IC50: 33.8 µM (inactive)
[21]
  IC50: 4.79 µM (active)
[22]
  IC50: 4.48 µM (active)
[23]
  IC50: 9.72 µM (active)
Genome polyprotein
  IC50: 59.4 µM (active)

## COCCn1cnc2c(c1=O)c1nc3ccccc3nc1n2/N=C/c1ccc(OC)c(OC)c1
Vero [24]
  CC50: 23.5 µM (active)
[25]
  IC50: 41.7 µM (inactive)

Source: ChEMBL document CHEMBL1201862, “PubChem BioAssay data set” (2004)
